One data set relates to S. aureus Smith. The experiment in a line: Evaluation in vivo (mouse), oral PD50 against S. aureus Smith. The conditions noted are these: Staphylococcus aureus. From the text: (§1) Tables 4 and 5 show the in vivo activity of pro-drug esters 88-92 including the bioavailability thereof as reflected by blood levels.
A further data set relates to E. coli Juhl. The experiment in a line: Evaluation in vivo (mouse), oral PD50 against E. coli Juhl. The conditions noted are these: Escherichia coli.
Source text: as §1

Data set [1] in a line: Evaluation in vivo (mouse), blood concentration (Table 4). The conditions noted are these: po, treated orally, single 100 mg/kg dose. Here is the method:
as §1
*treated orally, single 100 mg/kg. dose

Data set [2] in a line: Bioavailability in mouse as reflected by blood levels (Table 5). The conditions noted are these: oral, Table 5 (definition given as drawing 18). The class given is in vivo.
Source text: as §1

The nature of data set [3]: Mouse blood levels after oral administration (Table 2). It counts as in vivo.
For data set [4], the system named is Penicillin(PC)sensitive S. aureus. The experiment in a line: In vitro MIC, two-fold serial agar dilution in Mueller-Hinton agar, Gp-Ia strains. The class given is cell-based. Conditions: Staphylococcus aureus; GpIa, 5 strains; read-out: Geometric mean of MIC, GpIa. Here is the method: (§2) The in vitro antibacterial activity of the parent cephalosporanic acids of Formula I wherein R^4 is hydrogen is shown in Table 1 in terms of geometric mean of the Minimum Inhibitory Concentrations (MIC's) which were determined by the two-fold serial agar dilution method in Mueller-Hinton agar against 25 strains of test organisms in five groups.
Gp-Ia: Penicillin(PC)sensitive S. aureus
For orientation: In agar dilution, organisms are placed on agar that contains the substance at set levels.

Another data set has as its system PCresistant S. aureus. The experiment in a line: In vitro MIC, two-fold serial agar dilution in Mueller-Hinton agar, GpIb strains. The class given is cell-based. The conditions noted are these: Staphylococcus aureus, 5 strains, read-out: Geometric mean of MIC, GpIb. Here is the method: as §2
GpIb: PCresistant S. aureus

The subject of data set [5] is Cephalothin(CET)sensitive E. coli (2 strains), K. pneumoniae (1) an P. mirabilis (2). Nature of the data set: In vitro MIC, two-fold serial agar dilution in Mueller-Hinton agar, GnIa strains. The class given is cell-based. The conditions noted are these: 5 strains, read-out: Geometric mean of MIC, GnIa. Here is the method: as §2
GnIa: Cephalothin(CET)sensitive E. coli (2 strains), K. pneumoniae (1) an […]

The test system of data set [6] is CETresistant E. coli (3) and K. pneumoniae (2). The experiment in a line: In vitro MIC, two-fold serial agar dilution in Mueller-Hinton agar, GnIb strains. It counts as cell-based. The conditions noted are these: Escherichia coli, 5 strains, read-out: Geometric mean of MIC, GnIb. Here is the method: as §2
GnIb: CETresistant E. coli (3) and K. pneumoniae (2)

For data set [7], the system named is M. morcanii (1), E. cloacae (2) and S. marcescens (2). Nature of the data set: In vitro MIC, two-fold serial agar dilution in Mueller-Hinton agar, GnII strains. The class given is cell-based. The conditions noted are these: Enterobacter cloacae, read-out: Geometric mean of MIC, GnII. Here is the method:
as §2
GnII: M. morcanii (1), E. cloacae (2) and S. marcescens (2)

Setting [8] is: mouse blood, 20 mg/kg, read-out: AUC.
Setting [9] is: mouse blood, 20 mg/kg, read-out: T 1/2 (converted).
[10] abbreviates: mouse blood, 100 mg/kg, read-out: AUC.
The mark [11] stands for this setting: mouse blood, 100 mg/kg, read-out: Cmax.
Setting [12] is: mouse blood, 100 mg/kg, read-out: T 1/2 (converted).

Values after ≈ are worked out from the molar mass of the structure shown. Like-named read-outs stand apart in the source and are kept apart here.

Take `C/C=C\C1=C(C(=O)OCc2oc(=O)oc2C)N2C(=O)[C@@H](NC(=O)/C(=N\O)c3csc(N)n3)[C@H]2SC1` [Compound 88, (5-methyl-2-oxo-1,3-dioxolen-4-yl)methyl 7β-[(Z)-2-(2-aminothiazol-4-yl)-2-(hydroxyimino)-acetamido]-3-[(Z)-prop-1-en-1-yl]-3-cephem-4-carboxylate]: the 50% effect level in the data set on S. aureus Smith (Table 4) (ED50) was put at a dose of 1.1 mg/kg. The ED50 – broadly, the dose that gives a 50% effect, or the effect in half of the subjects – in the data set on E. coli Juhl (Table 4) is 2.7 mg/kg. Moreover, in data set [1], the AUC (as a rule, the area under the concentration-time curve, a measure of exposure) was determined as 44000 ng·h/mL and the Cmax (as a rule, the highest concentration seen after dosing) turned out to be 16000 ng/mL.

As to `C/C=C\C1=C(C(=O)OC(C)OC(=O)OC2CCCCC2)N2C(=O)C(NC(=O)/C(=N\O)c3csc(N)n3)[C@H]2SC1` (some centres unmarked) [Compound 90, 1-(cyclohexyloxycarbonyloxy)ethyl 7-[(Z)-2-(2-aminothiazol-4-yl)-2-(hydroxyimino)acetamido]-3-[(Z)-1-propenyl]-3-cephem-4-carboxylate], the ED50 in the data set on S. aureus Smith (Table 5) amounted to 3.2 mg/kg; with E. coli Juhl (Table 5), 1.5 mg/kg. Moreover, in data set [2], the bioavailability (commonly the share of a dose that reaches the circulation, judged against a reference dose that is usually intravenous) was found to be 78%.

Turning to `C/C=C\C1=C(C(=O)OC(C)OC(=O)CC2CCCCC2)N2C(=O)C(NC(=O)/C(=N\O)c3csc(N)n3)[C@H]2SC1` (some centres unmarked) [Compound 92, 1-(cyclohexylacetoxy)ethyl 7-[(Z)-2-(2-aminothiazol-4-yl)-2-(hydroxyimino)acetamido]-3-[(Z)-1-propenyl]-3-cephem-4-carboxylate], the ED50 with S. aureus Smith (Table 5) was found to be 2.9 mg/kg; in the data set on E. coli Juhl (Table 5), 1.4 mg/kg. The same molecule came in with a bioavailability in data set [2] of 87%.

As to `C/C=C\C1=C(C(=O)OC(C)OC(C)=O)N2C(=O)[C@@H](NC(=O)/C(=N\OC(C)=O)c3csc(N)n3)[C@H]2SC1` (stereo partly drawn) [Compound 55, 1-acetoxyethyl 7β-[(Z)-2-(2-aminothiazol-4-yl)-2-(acetoxyimino)acetamido]-3-[(Z)-prop-1-en-1-yl]-3-cephem-4-carboxylate], in data set [3] (mouse, in vivo, 20 mg/kg), the AUC is 9400 ng·h/mL, the maximum concentration (Cmax) is 7600 ng/mL and the half-life is 0.8 h. In data set [3] (mouse, in vivo, 100 mg/kg), this molecule gave an area under the curve (AUC) of 40000 ng·h/mL, a Cmax of 27000 ng/mL and a half-life of 0.8 h.

`C/C=C\C1=C(C(=O)OC(C)OC(=O)OCC)N2C(=O)[C@@H](NC(=O)/C(=N\O)c3csc(N)n3)[C@H]2SC1` (stereo partly drawn) [Compound 89, 1-(ethoxycarbonyloxy)ethyl 7β-[(Z)-2-(2-aminothiazol-4-yl)-2-(hydroxyimino)-acetamido]-3-[(Z)-prop-1-en-1-yl]-3-cephem-4-carboxylate] displayed an ED50 in the data set with S. aureus Smith (Table 4) of 0.77 mg/kg. Moreover, the 50% effect level in the data set on E. coli Juhl (Table 4) (ED50) was put at a dose of 0.67 mg/kg. In addition, in [1], the AUC worked out at 74000 ng·h/mL and the highest level (Cmax) was 32000 ng/mL.

Consider `N[C@@H](C(=O)N[C@@H]1C(=O)N2C(C(=O)O)=C(Cl)CS[C@H]12)c1ccccc1` [Cefaclor, reference compound], for which the minimum inhibitory concentration (MIC) (usually the least concentration at which growth counts as inhibited) in data set [4] was 0.7 µg/mL (≈ 1.9 µM); in the data set on PCresistant S. aureus, 4.7 µg/mL (≈ 12.8 µM); in data set [5] it was 0.92 µg/mL (≈ 2.5 µM); in [6] it was 11 µg/mL (≈ 29.9 µM); in data set [7], more than 100 µg/mL. The AUC is 8900 ng·h/mL in data set [3] (mouse, in vivo, 20 mg/kg) and 35000 ng·h/mL in data set [3] (mouse, in vivo, 100 mg/kg). Besides, the half-life in [3] (mouse, in vivo, 20 mg/kg) was 0.91 h; in data set [3] (mouse, in vivo, 100 mg/kg), 1.2 h.

For `C/C=C\C1=C(C(=O)OC(C)OC(C)=O)N2C(=O)[C@@H](NC(=O)/C(=N\O)c3csc(N)n3)[C@H]2SC1` (stereo partly drawn) [Compound 30, 1-acetoxyethyl 7β-[(Z)-2-(2-aminothiazol-4-yl)-2-(hydroxyimino)acetamido]-3-[(Z)-prop-1-en-1-yl]-3-cephem-4-carboxylate], the AUC in [3] (mouse, in vivo, 20 mg/kg) stood at 16000 ng·h/mL; in data set [3] (mouse, in vivo, 100 mg/kg), 61000 ng·h/mL. Further, the Cmax was determined as 9900 ng/mL in data set [3] (mouse, in vivo, 20 mg/kg) and 36000 ng/mL in [3] (mouse, in vivo, 100 mg/kg). For the same molecule, the half-life was 1 h in data set [3] (mouse, in vivo, 20 mg/kg) and 1.3 h in data set [3] (mouse, in vivo, 100 mg/kg). The values for the ED50 in the data set on S. aureus Smith (Table 5) and in the data set on E. coli Juhl (Table 5) were 2 mg/kg and 1.1 mg/kg, respectively. In data set [2], this molecule gave a bioavailability of 76%.

As to `C/C=C/C1=C(C(=O)O)N2C(=O)[C@@H](NC(=O)/C(=N\O)c3csc(N)n3)[C@H]2SC1` [Compound 33, 7β-[(Z)-2-(2-aminothiazol-4-yl)-2-(hydroxyimino)acetamido]-3-[(E)-prop-1-en-1-yl]-3-cephem-4-carboxylic acid], the MIC came out at 0.23 µg/mL (≈ 0.562 µM) in data set [4]; 0.61 µg/mL (≈ 1.49 µM) in the data set with PCresistant S. aureus; 0.46 µg/mL (≈ 1.12 µM) in data set [5]; 1.4 µg/mL (≈ 3.42 µM) in data set [6]; 22 µg/mL (≈ 53.7 µM) in data set [7].

As to `C/C=C\C1=C(C(=O)OC(C)OC(=O)C(C)(C)C)N2C(=O)C(NC(=O)/C(=N\O)c3csc(N)n3)[C@H]2SC1` (some centres unmarked) [Compound 91, 1-(pivaloyloxy)ethyl 7-[(Z)-2-(2-aminothiazol-4-yl)-2-(hydroxyimino)acetamido]-3-[(Z)-1-propenyl]-3-cephem-4-carboxylate], the ED50 in the data set with S. aureus Smith (Table 5) stood at 2 mg/kg; with E. coli Juhl (Table 5), 3.5 mg/kg. This molecule also had a bioavailability in data set [2] of 60%.

`CC1=C(C(=O)O)N2C(=O)[C@@H](NC(=O)[C@H](N)c3ccc(O)cc3)[C@H]2SC1` [Cefadroxil, reference compound]: the MIC in [4] is 1.4 µg/mL (≈ 3.85 µM); with PCresistant S. aureus, 3.6 µg/mL (≈ 9.91 µM); in data set [5], 8.3 µg/mL (≈ 22.8 µM); in data set [6], 17 µg/mL (≈ 46.8 µM); in data set [7], more than 100 µg/mL. Moreover, the AUC in data set [3] (setting [8]) stood at 16000 ng·h/mL; in [3] (setting [10]), 69000 ng·h/mL. Further, the half-life in data set [3] (setting [9]) was 1.4 h; in data set [3] (setting [12]) it was 1.6 h. Also, the Cmax in data set [3] (setting [11]) is 57000 ng/mL.

Regarding `CC(=O)OC/C=C\C1=C(C(=O)O)N2C(=O)[C@@H](NC(=O)/C(=N\O)c3csc(N)n3)[C@H]2SC1` [Compound 37, 7β-[(Z)-2-(2-aminothiazol-4-yl)-2-(hydroxyimino)acetamido]-3-[(Z)-3-acetoxyprop-1-en-1-yl]-3-cephem-4-carboxylic acid], the minimal inhibitory concentration (MIC) in [4] amounted to 0.17 µg/mL (≈ 0.364 µM); in the data set on PCresistant S. aureus, 0.4 µg/mL (≈ 0.856 µM); in data set [5] it was 0.025 µg/mL (≈ 0.0535 µM); in data set [6] it was 0.1 µg/mL (≈ 0.214 µM); in data set [7], 1.1 µg/mL (≈ 2.35 µM).

In the case of `C/C=C\C1=C(C(=O)O)N2C(=O)[C@@H](NC(=O)/C(=N\OC(C)=O)c3csc(N)n3)[C@H]2SC1` [Compound 53, 7β-[(Z)-2-(2-aminothiazol-4-yl)-2-(acetoxyimino)acetamido]-3-[(Z)-prop-1-en-1-yl]-3-cephem-4-carboxylic acid], the minimal inhibitory concentration (MIC) in [4] came to 0.17 µg/mL (≈ 0.377 µM); with PCresistant S. aureus, 0.4 µg/mL (≈ 0.886 µM); in data set [5] it was 0.057 µg/mL (≈ 0.126 µM); in data set [6] it was 0.26 µg/mL (≈ 0.576 µM); in data set [7], 3.6 µg/mL (≈ 7.97 µM).

For the molecule `C=CC1=C(C(=O)O)N2C(=O)[C@@H](NC(=O)/C(=N\OCC(=O)O)c3csc(N)n3)[C@H]2SC1` [Cefixime, cefixime], the MIC in [4] was found to be 4.7 µg/mL (≈ 10.4 µM); with PCresistant S. aureus, 12.5 µg/mL (≈ 27.6 µM); in data set [5] it was 0.016 µg/mL (≈ 0.0353 µM); in [6], 3.1 µg/mL (≈ 6.84 µM); in data set [7], 3.2 µg/mL (≈ 7.06 µM). The AUC in [3] (setting [8]) came to 25000 ng·h/mL; in data set [3] (setting [10]), 75000 ng·h/mL. Besides, the Cmax in data set [3] (mouse blood, 20 mg/kg, read-out: Cmax) was 10000 ng/mL; in data set [3] (setting [11]), 28000 ng/mL. Also, the figures for the half-life in data set [3] (setting [9]) and in data set [3] (setting [12]) were 1.5 h and 1.6 h, respectively.

Source of the values: patent US4874856A, “3-(substituted)propenyl-7-(aminothiazolylacetamido) ceph-3-em-4-carboxylic acids and esters thereof” (Bristol-Myers Company, priority 1987, dated 1989).
